From patent US12053549B2, “Laxative tablet” (SETOLAS Holdings, Inc., priority 2018, dated 2024)

Experiment: Volume-based 50% particle diameter (D50) of raw materials by laser diffractometry
Assay type: physicochemical
Details: raw material
Method: 0.7 g of magnesium oxide was placed in a beaker with 70 mL of 0.2% sodium hexametaphosphate solution, and the mixture was subjected to dispersion treatment (3 minutes) using an ultrasonic homogenizer (Nippon Seiki, US-300). The volume-based 50% particle size (D50) of the magnesium oxide was then measured using a laser diffraction scattering particle size analyzer (Nikkiso, Microtrac).

[O]=[Mg] [Magnesium oxide]
volume-based 50% particle size (D50): 6.5 μm
